Laboratory results from patent publication US20260194517A1, “FRUCTOSE-1,6-DIPHOSPHATE OPTICAL PROBE, AND PREPARATION METHOD THEREFOR AND USE THEREOF” (EAST CHINA UNIVERSITY OF SCIENCE AND TECHNOLOGY, priority 2022, published 2026).

system: H1299 cells; assay: Dynamic monitoring of cytoplasmic fructose-1,6-bisphosphate in H1299 cells expressing the optical probe; assay type: cell-based; conditions: 0.5 mM 3-BrPA in HBSS, 30-min period, H1299 cells with cytoplasm-expressed probe
Experimental: • 1. The pCDNA3.1+-based fructose-1,6-bisphosphate optical probe plasmid was transfected into HEK293 cells by the transfection reagent Lipofectamine2000 (Invitrogen), and cultured in a cell incubator at 37° C., 5% CO2. Fluorescence detection was performed 24-36 h after the exogenous gene was fully expressed. • 2. After induction of expression, adherent HEK293 cells were washed three times with PBS and placed in HBSS solution for fluorescence microscopy and microplate reader assays, respectively.
After H1299 cells were transfected with the cytoplasm-expressed optical probe plasmid for 36 h, they were washed with PBS and placed in HBSS solutions containing 0 mM 3-BrPA and 0.5 mM 3-BrPA, and the changes in the ratio of the fluorescence intensity at 528 nm emission and at 420 nm excitation and the fluorescence intensity at 528 nm emission at 485 nm excitation were detected over a 30-min period.

Compound | ratio of 420/485, maximum relative to the initial value
O=C(O)C(=O)CBr [3-BrPA] | 3.7 times the initial value

system: not listed separately; assay: Screening of linker-mutated cpYFP optical probes for response to fructose-1,6-bisphosphate; assay type: biochemical; conditions: linker mutants of CggR(88-340)-cpYFP; 485 nm/420 nm signal ratio of sample relative to control
Description: The invention also provides use of fructose-1,6-bisphosphate optical probes in real-time localization, quantitative detection and high-throughput compound screening of fructose-1,6-bisphosphate. In one aspect, the fructose-1,6-bisphosphate optical probe, preferably linked with signal peptides at different parts of the cell, is transferred into cells for real-time localization of fructose-1,6-bisphosphate by detecting the strength of fluorescence signals in cells, corresponding quantitative detection of fructose-1,6-bisphosphate is performed by a fructose-1,6-bisphosphate standard titration curve. […] In the embodiment involving cpYFP, the ratio is the ratio of the ratio of the sample's 485-nanometer fluorescence signal to the 420-nanometer fluorescence signal to the corresponding ratio of the control. The fructose-1,6-bisphosphate standard titration curve of the present invention is drawn based on the fluorescence signal of the fructose-1,6-bisphosphate optical probe under different concentrations of fructose-1,6-bisphosphate. The fructose-1,6-bisphosphate optical probe described herein is directly transferred into cells, which is more accurate without time-consuming sample processing process during the real-time localization and quantitative detection of fructose-1,6-bisphosphate. When the fructose-1,6-bisphosphate optical probe of the present invention is used for high-throughput compound screening, different compounds are added to the cell culture fluid, and the change of fructose-1,6-bisphosphate content is measured, so as to screen out compounds that affect the change of fructose-1,6-bisphosphate content.
• 1. An expression vector (such as a pCDF-based fructose-1,6-bisphosphate optical probe expression vector) was transform into BL21 (DE3) cells, and invert-cultured overnight, and clones were picked from the plate into a 250 ml Erlenmeyer flask, and placed in a 37° C. shaker, cultured at 220 rpm to OD=0.4-0.8, add 1/1000 (v/v) IPTG (1 M), and induced expression at 18° C. for 24-36 h. • 2. After induction, cells were harvested by centrifugation at 4000 rpm for 30 min, resuspended in 50 mM phosphate buffer and disrupted ultrasonically until the broth were clear, centrifuged at 9600 rpm at 4° C. for 20 min. • 3. The centrifuged supernatant was purified by a self-packed nickel-column affinity chromatography column to obtain the protein, and the protein after nickel-column affinity chromatography was then passed through a self-packed desalting column to obtain the protein dissolved in 100 mM HEPES buffer (pH 7.4). • 4. After the purified protein was identified by SDS-PAGE, the probe was diluted with assay buffer (100 mM HEPES, 100 mM NaCl, pH 7.4) into a protein solution with a final concentration of 0.2-5 μM. Fructose-1,6-bisphosphate was prepared as a stock solution at a final concentration of 50 mM with assay buffer (100 mM HEPES, 100 mM NaCl, pH 7.4). • 5. 100 μl of 1 μM protein solution was taken and incubated at 37° C. for 10 min, […], and measured the fluorescence intensity of the protein at 528 nm after excitation at 420 nm and fluorescence intensity of the protein at 528 nm after excitation at 485 nm. The fluorescence excitation and emission measurement of the samples were completed by a multifunctional fluorescence microplate reader. • 6.100 μl of 1 μM protein solution was taken, incubated at 37° C. for 10 min, tryptophan was added, and measured the absorption and fluorescence spectra of the protein. The determination of the absorption spectrum and fluorescence spectrum of the sample was completed by a spectrophotometer and a fluorescence spectrophotometer.
Optical probe mutants were constructed based on PCDF-CggR(88-340)-176/177-CPYFP, PCDF-CggR(88-340)-176/178-CPYFP, PCDF-CggR(88-340)-177/181-CPYFP, PCDF-CggR(88-340)-179/180-CPYFP, PCDF-CggR(88-340)-182/184-CPYFP, PCDF-CggR(88-340)-182/185-CPYFP, PCDF-CggR(88-340)-203/206-CPYFP, PCDF-CggR(88-340)-203/207-CPYFP and PCDF-CggR-203/208(88-340)-CPYFP. […]

Compound | Standardized fluorescence signal ratio
Serial number 7: cpYFP at 176/177 of CggR(88-340); CggR: G177M/L178N/Q185A; SEQ ID NO: 11 | 4
Serial number 20: cpYFP at 182/184 of CggR(88-340); CggR: N184V/Q185P/D181E/V182G CPYFP: Y1V; SEQ ID NO: 16 | 9.6
Serial number 4: cpYFP at 176/177 of CggR(88-340); CggR: G177M/L178N; SEQ ID NO: 10 | 4.54
Serial number 16: cpYFP at 182/184 of CggR(88-340); CggR: N184V/Q185P/D181E/V182G/G177L CPYFP: Y1V; SEQ ID NO: 14 | 11.6
Serial number 8: cpYFP at 176/177 of CggR(88-340); CggR: G177M/L178N/Q185T; SEQ ID NO: 12 | 4
Serial number 17: cpYFP at 182/184 of CggR(88-340); CggR: N184V/Q185P/D181E/V182G/G177L CPYFP: Y1I; SEQ ID NO: 15 | 12
Serial number 9: cpYFP at 176/177 of CggR(88-340); CggR: G177M/L178N/Q185D; SEQ ID NO: 13 | 4.17
